Molecular target: T1, α-7 nicotinic acetylcholine receptor channel expressed in HEK 293 cells (Rattus norvegicus, UniProt Q05941)
T1 construct: expressed in transfected cells
Assay: Ca2+-sensitive fluorescence-based FLIPR assay, α7 nicotinic ACh receptor channel function (agonist)
Type: cell-based
Details: FLIPR α7 activity rating (EC50, nM), Table 1; HEK 293 cells, agonist Ca2+ flux
Outline: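 Potency and efficacy derived from kinetic FLIPR Ca²⁺-flux fluorescence, recorded 3 min after compound addition in Hanks buffer following a 10 s baseline.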

T1 sequence (Q05941 23-502): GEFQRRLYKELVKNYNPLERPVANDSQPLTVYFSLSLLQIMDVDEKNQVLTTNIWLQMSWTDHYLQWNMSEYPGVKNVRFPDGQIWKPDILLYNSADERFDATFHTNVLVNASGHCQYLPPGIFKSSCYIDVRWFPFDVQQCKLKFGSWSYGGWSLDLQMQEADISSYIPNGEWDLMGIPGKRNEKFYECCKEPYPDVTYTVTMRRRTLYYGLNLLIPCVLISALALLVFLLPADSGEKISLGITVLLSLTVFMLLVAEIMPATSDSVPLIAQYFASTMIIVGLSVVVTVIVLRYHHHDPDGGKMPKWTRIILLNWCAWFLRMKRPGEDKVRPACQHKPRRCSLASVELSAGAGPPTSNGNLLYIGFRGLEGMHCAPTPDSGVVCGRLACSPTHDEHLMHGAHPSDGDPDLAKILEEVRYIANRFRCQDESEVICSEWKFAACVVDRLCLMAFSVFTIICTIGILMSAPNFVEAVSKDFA

Compared with c1ccc(COc2ccc3nc(NC4=NC[C@@]5(CN6CCC5CC6)O4)sc3n2)cc1 [Example 236, (R)—N-(5-(Benzyloxy)thiazolo[5,4-b]pyridin-2-yl)-4H-1′-azaspiro[oxazole-5,3′-bicyclo[2.2.2]octan]-2-amine], Clc1ccc2nc(NC3=NC[C@@]4(CN5CCC4CC5)O3)sc2n1 [Example 268, (R)—N-(5-chlorothiazolo[5,4-b]pyridin-2-yl)-4H-1′-azaspiro[oxazole-5,3′bicyclo[2.2.2]octan]-2-amine] is lower in EC50: 1000 to 100000 nM for the first, under 100 nM for the second. The second is the more potent here.

O=c1ccc2nc(NC3=NC[C@@]4(CN5CCC4CC5)O3)sc2[nH]1 [Example 237, (R)-2-(4H-1′-azaspiro[oxazole-5,3′-bicyclo[2.2.2]octane]-2-ylamino)thiazolo[5,4-b]pyridin-5(4H)-one] and c1cnc2sc(NC3=NC[C@@]4(CN5CCC4CC5)O3)nc2c1 [Example 271, (R)—N-(Thiazolo[5,4-h]pyridin-2-yl)-4H-1′-azaspiro[oxazole-5,3′-bicyclo[2.2.2]octan]-2-amine] cannot be ordered by EC50: under 100 nM for the first, under 100 nM for the second.

First: c1ccc(Oc2cc(NC3=NC[C@@]4(CN5CCC4CC5)O3)ncn2)cc1 [Example 240, (R)—N-(6-Phenoxypyrimidin-4-yl)-4H-1′-azaspiro[oxazole-5,3′-bicyclo[2.2.2]octan]-2-amine]
Second: c1cncc(-c2cc(NC3=NC[C@@]4(CN5CCC4CC5)O3)ncn2)c1 [Example 244, (R)—N-(6-(Pyridin-3-yl)pyrimidin-4-yl)-4H-1′-azaspiro[oxazole-5,3′-bicyclo[2.2.2]octan]-2-amine]
The EC50 of the first is higher: 100 to 1000 nM for the first, under 100 nM for the second. The second is the more potent here.

COc1ccc2ncc(NC3=NC[C@@]4(CN5CCC4CC5)O3)nc2c1 [Example 241, (R)—N-(7-methoxyquinoxalin-2-yl)-4H-1′-azaspiro[oxazole-5,3′-bicyclo[2.2.2]octan]-2-amine] and Cc1ccc2ncc(NC3=NC[C@@]4(CN5CCC4CC5)O3)nc2c1 [Example 243, (R)—N-(7-Methylquinoxalin-2-yl)-4H-1′-azaspiro[oxazole-5,3′-bicyclo[2.2.2]octan]-2-amine] fall in the same range of EC50: 1000 to 100000 nM for the first, 1000 to 100000 nM for the second.

First: Cc1ccc2nc(NC3=NC[C@@]4(CN5CCC4CC5)O3)cnc2c1 [Example 242, (R)—N-(6-Methylquinoxalin-2-yl)-4H-1′-azaspiro[oxazole-5,3′-bicyclo[2.2.2]octan]-2-amine]
Second: c1cc2nc(NC3=NC[C@@]4(CN5CCC4CC5)O3)ccc2cn1 [Example 277, (R)—N-(1,6-Naphthyridin-2-yl)-4H-1′-azaspiro[oxazole-5,3′-bicyclo[2.2.2]octan]-2-amine]
The EC50 of the first is higher: 100 to 1000 nM for the first, under 100 nM for the second. The second is the more potent here.

COc1ncc(-c2cc(NC3=NC[C@@]4(CN5CCC4CC5)O3)ncn2)cn1 [Example 245, (R)—N-(2′-Methoxy-4,5′-bipyrimidin-6-yl)-4H-1′-azaspiro[oxazole-5,3′-bicyclo[2.2.2]octan]-2-amine] and c1cc(-c2cc(NC3=NC[C@@]4(CN5CCC4CC5)O3)ncn2)ccn1 [Example 246, (R)—N-(6-(Pyridin-4-yl)pyrimidin-4-yl)-4H-1′-azaspiro[oxazole-5,3′-bicyclo[2.2.2]octan]-2-amine] cannot be ordered by EC50: under 100 nM for the first, under 100 nM for the second.

First: Cc1nc(NC2=NC[C@@]3(CN4CCC3CC4)O2)ccc1C#N [Example 247, (R)-6-(4H-1′-Azaspiro[oxazole-5,3′-bicyclo[2.2.2]octane]-2-ylamino)-2-methylnicotinonitrile]
Second: Clc1ccc(NC2=NC[C@@]3(CN4CCC3CC4)O2)nc1Cl [Example 251, (R)—N-(5,6-Dichloropyridin-2-yl)-4H-1′-azaspiro[oxazole-5,3′-bicyclo[2.2.2]octan]-2-amine]
The EC50 of the first is higher: 100 to 1000 nM for the first, under 100 nM for the second.

Compared with Cc1cc(NC2=NC[C@@]3(CN4CCC3CC4)O2)nc(C)c1C#N [Example 248, (R)-6-(4H-1′-Azaspiro[oxazole-5,3′-bicyclo[2.2.2]octane]-2-ylamino)-2,4-dimethylnicotinonitrile], Cc1cc(NC2=NC[C@@]3(CN4CCC3CC4)O2)ncc1Cl [Example 253, (R)—N-(5-Chloro-4-methylpyridin-2-yl)-4H-1′-azaspiro[oxazole-5,3′-bicyclo[2.2.2]octan]-2-amine] is lower in EC50: 100 to 1000 nM for the first, under 100 nM for the second. The second is the more potent here.

First: c1ccc(-c2ccc(NC3=NC[C@@]4(CN5CCC4CC5)O3)nn2)cc1 [Example 249, (R)—N-(6-Phenylpyridazin-3-yl)-4H-1′-azaspiro[oxazole-5,3′-bicyclo[2.2.2]octan]-2-amine]
Second: Clc1ccc(NC2=NC[C@@]3(CN4CCC3CC4)O2)nn1 [Example 254, (R)—N-(6-Chloropyridazin-3-yl)-4H-1′-azaspiro[oxazole-5,3′-bicyclo[2.2.2]octan]-2-amine]
The EC50 of the first is higher: 1000 to 100000 nM for the first, 100 to 1000 nM for the second. The second is the more potent here.

Clc1cnc(NC2=NC[C@@]3(CN4CCC3CC4)O2)cc1Cl [Example 252, (R)—N-(4,5-Dichloropyridin-2-yl)-4H-1′-azaspiro[oxazole-5,3′-bicyclo[2.2.2]octan]-2-amine] and Clc1cnc(NC2=NC[C@@]3(CN4CCC3CC4)O2)c(Cl)c1 [Example 267, (R)—N-(3,5-Dichloropyridin-2-yl)-4H-1′-azaspiro[oxazole-5,3′-bicyclo[2.2.2]octan]-2-amine] cannot be ordered by EC50: under 100 nM for the first, under 100 nM for the second.

First: Brc1ccc(NC2=NC[C@@]3(CN4CCC3CC4)O2)nn1 [Example 255, (R)—N-(6-Bromopyridazin-3-yl)-4H-1′-azaspiro[oxazole-5,3′-bicyclo[2.2.2]octan]-2-amine]
Second: c1ccn2c(NC3=NC[C@@]4(CN5CCC4CC5)O3)nnc2c1 [Example 262, (R)—N-([1,2,4]Triazol[4,3-a]pyridine-3-yl)-4H-1′-azaspiro[oxazole-5,3′-bicyclo[2.2.2]octan]-2-amine]
The EC50 of the first is lower: 100 to 1000 nM for the first, 1000 to 100000 nM for the second. The first is the more potent here.

Clc1ccc(-c2cc(NC3=NC[C@@]4(CN5CCC4CC5)O3)ncn2)cc1 [Example 256, (R)—N-(6-(4-Chlorophenyl)pyrimidin-4-yl)-4H-1′-azaspiro[oxazole-5,3′-bicyclo[2.2.2]octan]-2-amine] and Clc1cccc(-c2cc(NC3=NC[C@@]4(CN5CCC4CC5)O3)ncn2)c1 [Example 257, (R)—N-(6-(3-Chlorophenyl)pyrimidin-4-yl)-4H-1′-azaspiro[oxazole-5,3′-bicyclo[2.2.2]octan]-2-amine] cannot be ordered by EC50: under 100 nM for the first, under 100 nM for the second.

Cc1nnc(NC2=NC[C@@]3(CN4CCC3CC4)O2)o1 [Example 258, (R)—N-(5-Methyl-1,3,4-oxadiazol-2-yl)-4H-1′-azaspiro[oxazole-5,3′-bicyclo[2.2.2]octan]-2-amine] and CCc1nnc(NC2=NC[C@@]3(CN4CCC3CC4)O2)o1 [Example 266, (R)—N-(5-Ethyl-1,3,4-oxadiazol-2-yl)-4H-1′-azaspiro[oxazole-5,3′-bicyclo[2.2.2]octan]-2-amine] fall in the same range of EC50: 1000 to 100000 nM for the first, 1000 to 100000 nM for the second.

First: Cc1nsc(NC2=NC[C@@]3(CN4CCC3CC4)O2)n1 [Example 259, (R)—N-(3-Methyl-1,2,4-thiadiazol-5-yl)-4H-1′-azaspiro[oxazole-5,3′-bicyclo[2.2.2]octan]-2-amine]
Second: Cc1noc(NC2=NC[C@@]3(CN4CCC3CC4)O2)n1 [Example 260, (R)—N-(3-Methyl-1,2,4-oxadiazol-5-yl)-4H-1′-azaspiro[oxazole-5,3′-bicyclo[2.2.2]octan]-2-amine]
The EC50 of the first is higher: 1000 to 100000 nM for the first, 100 to 1000 nM for the second.

Compared with CSc1cc(NC2=NC[C@@]3(CN4CCC3CC4)O2)ncn1 [Example 261, (R)—N-(6-(Methylthio)pyrimidin-4-yl)-4H-1′-azaspiro[oxazole-5,3′-bicyclo[2.2.2]octan]-2-amine], CSc1cnc2nc(NC3=NC[C@@]4(CN5CCC4CC5)O3)sc2n1 [Example 264, (R)—N-(6-(methylthio)thiazolo[5,4-h]pyrazin-2-yl)-4H-1′-azaspiro[oxazole-5,3′-bicyclo[2.2.2]octan]-2-amine] is higher in EC50: under 100 nM for the first, 100 to 1000 nM for the second. The first is the more potent here.

Brc1cnc2nc(NC3=NC[C@@]4(CN5CCC4CC5)O3)sc2n1 [Example 263, (R)—N-(6-bromothiazolo[5,4-b]pyrazin-2-yl)-4H-1′-azaspiro[oxazole-5,3′-bicyclo[2.2.2]octan]-2-amine] and c1cnc2sc(NC3=NC[C@@]4(CN5CCC4CC5)O3)nc2n1 [Example 272, (R)—N-(Thiazolo[5,4-b]pyrazin-2-yl)-4H-1′-azaspiro[oxazole-5,3′-bicyclo[2.2.2]octan]-2-amine] cannot be ordered by EC50: under 100 nM for the first, under 100 nM for the second.

First: COc1ncc2nc(NC3=NC[C@@]4(CN5CCC4CC5)O3)sc2n1 [Example 265, (R)—N-(5-Methoxythiazolo[5,4-d]pyrimidin-2-yl)-4H-1′-azaspiro[oxazole-5,3′-bicyclo[2.2.2]octan]-2-amine]
Second: CN(C)c1ncc2nc(NC3=NC[C@@]4(CN5CCC4CC5)O3)sc2n1 [Example 269, (R)—N^5,N^5-dimethyl-N^2-(4H-1′-azaspiro[oxazole-5,3′-bicyclo[2.2.2]octane]-2-yl)thiazolo[5,4-d]pyrimidine-2,5-diamine]
The EC50 of the first is lower: under 100 nM for the first, 1000 to 100000 nM for the second. The first is the more potent here.

Compared with c1cn2nc(NC3=NC[C@@]4(CN5CCC4CC5)O3)nc2cn1 [Example 270, (R)—N-([1,2,4]Triazol[1,5-a]pyrazin-2-yl)-4H-1′-azaspiro[oxazole-5,3′-bicyclo[2.2.2]octan]-2-amine], N#Cc1cnc(NC2=NC[C@@]3(CN4CCC3CC4)O2)s1 [Example 275, (R)-2-(4H-1′-Azaspiro[oxazole-5,3′-bicyclo[2.2.2]octan]-2-ylamino)thiazole-5-carbonitrile] is higher in EC50: under 100 nM for the first, 100 to 1000 nM for the second.

COc1nc(C)nc2sc(NC3=NC[C@@]4(CN5CCC4CC5)O3)nc12 [Example 273, (R)—N-(7-Methoxy-5-methylthiazolo[5,4-d]pyrimidin-2-yl)-4H-1′-azaspiro[oxazole-5,3′-bicyclo[2.2.2]octan]-2-amine] and COc1ncnc2sc(NC3=NC[C@@]4(CN5CCC4CC5)O3)nc12 [Example 274, (R)—N-(7-Methoxythiazolo[5,4-d]pyrimidin-2-yl)-4H-1′-azaspiro[oxazole-5,3′-bicyclo[2.2.2]octan]-2-amine] fall in the same range of EC50: 1000 to 100000 nM for the first, 1000 to 100000 nM for the second.

Clc1cc(Cl)c2cnc(NC3=NC[C@@]4(CN5CCC4CC5)O3)cc2c1 [Example 279, (R)—N-(6,8-Dichloroisoquinolin-3-yl)-4H-1′-azaspiro[oxazole-5,3′-bicyclo[2.2.2]octan]-2-amine] gave an EC50 of 100 to 1000 nM.
